The values that follow come from ChEMBL document CHEMBL1141278, “Naamidines H and I, cytotoxic imidazole alkaloids from the Indonesian marine sponge Leucetta chagosensis” (J Nat Prod, 2007).

Structures are written as SMILES. Converted amounts (≈) assume the structure as drawn. The source made the active and inactive calls. The rule behind the calls is not given here.

One test relates to HeLa. Briefly: Cytotoxicity against human HeLa cells by MTT assay. It is filed as functional, cell-based.
The test system of another test is Escherichia coli. Briefly: Antimicrobial activity against Escherichia coli at 50 ug/6 mm disk by paper disk method. The format is functional, organism-based.

`COc1ccc(Cc2[nH]/c(=N\C3=NC(=O)N(C)C3=O)n(C)c2Cc2cc(OC)c(O)c(OC)c2)cc1` [NAAMIDINE H] returned an IC50 in the test on HeLa of 5.6 µg/mL (≈ 11.3 µM). For the same compound, in the test on Escherichia coli, the outcome was inactive.
Taken in the same sequence, the figures for `C/N=C1N=C(/N=c2\[nH]c(Cc3ccc(OC)cc3)c(Cc3cc(OC)c(O)c(OC)c3)n2C)C(=O)N\1C` [NAAMIDINE I] were 15 µg/mL (≈ 29.6 µM) and “inactive”.
